Where a name gives a salt, the structure may show the parent alone. Read-outs that look alike come from different tables or passages of the source.
Assays:
[1] = system: mice (reaction time under heat source); test: Mouse Tail-flick test; type: in vivo, mouse (Male Charles River); details: sc, 0.5 h; for responders at 1 mg/kg: 1 mg Kg^-1, Table 3, read-out: Mouse tail flick % Protection
Protocol: Mouse Tail-flick test (Modified from the procedure published by D'Amour et al., J. Pharm. Exptl. Ther. 72, 74/1941)
Male Charles River mice, average weight 26 g, are used. Selection is carried out before beginning of experiments: only mice whose reaction time is less than 8 sec are used. They are randomly distributed into groups of 10 and dosed with compounds under test, with positive and negative controls being included.
Compounds under test are administered subcutaneously in isotonic saline in a volume of 20 ml. Kg^-1. 30 min later mice are placed again under heat source (Socrel apparatus) and reaction time is recorded.
The analgestic activity of the test compound is expressed as the percent number of mice doubling the initial time within a group. [formula]

[2] = system: mice (p-phenylquinone writhing); test: Mouse p-phenylquinone Writhing test; type: in vivo, mouse (Male Charles River); details: sc, Table 2
Protocol: Mouse p-phenylquinone Writhing test (According to Siegmund et al., Proc. Soc. Exptl. Biol. 95, 729/1957)
Male Charles River mice, average weight 26 g, are randomly distributed into group of 10 and are dosed subcutaneously with compounds under test, dissolved in isotonic saline (20 ml.Kg^-1). The experiments are carried out in the presence of positive and negative controls. 20 min after the mince are injected intraperitoneally with p-phenylquinone 0.02%, 10 ml. Kg^-1, maintained at 37° C. in a water bath. The mice are placed in a perspex compartmented observation box and observed for a period of 8 min after injection of p-phenylquinone. The dose-response curve is obtained by basing observation on the all or none response.

μ receptor = μ receptor (Cavia porcellus, UniProt A0ACM8Q262); test: Radio receptor binding to μ sites (3H-DAGO)
Protocol: (§1) RECEPTOR AFFINITY STUDY Tissue preparation
(§2) Radio receptor binding to μ and K sites is performed on fresh guinea pig brain homogenate prepared according to Kosterlitz (1981).
(§3) Whole brain without cerebellum is homogenized in 50 mM, Tris-buffer (pH 7.4 at 0° C.) and centrifuged at 49,000×g×10 min.
(§4) The pellet is then resuspended in the same buffer, incubated at 37° C. for 45 min. and centrifuged again.
(§5) 1.9 ml of the final homogenate (1:100 in Tris-pH 7.4, 0° C.) is used for the binding assay.
Binding to μ sites (Magnan J., 1982)
^3 H [D-Ala^2, MePhe^4, Gly-ol^5 ] Enkephalin (^3 H-DAGO), an enkephalin analogue that binds selectively to μ receptor, is added to the biological substrate and incubated at 25° C. for 40 min., filtered through Whatman GF-C and washed with ice-cold Tris-buffer.
The filters are then dryed, solubilized in Filtercount and the radioactivity monitored. Non specific binding is determined in the presence of 10^-6 M Naloxone.
(§6) For the calculation of the kinetic parameters of the binding of labelled and unlabelled ligands, the equilibrium dissociation constant (KD), the inhibition constant (Ki) and the maximum number of binding sites (B max) are determined from saturation curves and competition experiments (Hill 1910; Scatchard 1949; Cheng and Prusoff 1973; Gillan et al. 1980).
(§7) A concentration of radioligand near KD is used in the binding assays evaluating our compounds.

[3] = molecular target: T1, K receptor (Kappa opioid receptor) (Cavia porcellus, UniProt P41144); test: Radio receptor binding to K sites (tritiated Ethylketocyclazocine); parameters: species or system guinea pig; details: for remaining activity at 1 µM: 40 min, 10^-6 M, read-out: Opiate receptor binding K, % residual specific binding at 10^-6 M
T1 construct: fresh guinea pig brain homogenate; from tissue; host or cells: guinea pig whole brain without cerebellum, homogenate
Protocol: as §1, §2, §3, §4, §5
Binding to K sites (Magnan J., 1982)
The binding of tritiated Ethylketocyclazocine to brain homogenate is measured the in presence of 100 nanomolar D-Ala-D-LeuEnkephalin (DADLE) and 100 nanomolar DAGO, added to saturate the δ and μ opioid receptors respectively.
Final homogenate with solutions of the cold ligand and of the labelled ligand is incubated for 40 min. at 25° C., filtered through Whatman GF/C glass filter discs and washed.
The radioactivity bound to the filters is counted by liquid scintillation spectrophotometry.
MR 2266.500 nM is utilized to determine the saturable binding.
as §6, §7

[4] = system: mice (reaction time under heat source); test: Mouse Tail-flick test; type: in vivo, mouse (Male Charles River); details: oral (os), Table 3
[5] = s.c., 30 min after dosing, Table 2, read-out: Mouse tail flick ED50
[6] = subcutaneous, Table 3, read-out: Mouse tail flick subcutaneous ED50
[7] = guinea pig brain homogenate, Table 3
[8] = read-out: Receptor binding μ Ki, guinea pig brain homogenate, Table 2

μ receptor, sequence (A0ACM8Q262 1-400): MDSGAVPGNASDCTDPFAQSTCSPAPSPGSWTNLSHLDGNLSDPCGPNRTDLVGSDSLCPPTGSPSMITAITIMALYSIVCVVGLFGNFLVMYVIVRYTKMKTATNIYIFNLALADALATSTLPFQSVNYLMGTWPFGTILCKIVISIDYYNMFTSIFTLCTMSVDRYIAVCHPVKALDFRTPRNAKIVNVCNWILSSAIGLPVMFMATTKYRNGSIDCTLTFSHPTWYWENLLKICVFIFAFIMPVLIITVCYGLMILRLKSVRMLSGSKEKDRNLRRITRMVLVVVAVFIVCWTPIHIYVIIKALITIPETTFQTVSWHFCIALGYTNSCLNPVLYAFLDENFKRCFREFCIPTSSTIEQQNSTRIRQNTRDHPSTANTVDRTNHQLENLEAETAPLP
T1 sequence (P41144 whole entry): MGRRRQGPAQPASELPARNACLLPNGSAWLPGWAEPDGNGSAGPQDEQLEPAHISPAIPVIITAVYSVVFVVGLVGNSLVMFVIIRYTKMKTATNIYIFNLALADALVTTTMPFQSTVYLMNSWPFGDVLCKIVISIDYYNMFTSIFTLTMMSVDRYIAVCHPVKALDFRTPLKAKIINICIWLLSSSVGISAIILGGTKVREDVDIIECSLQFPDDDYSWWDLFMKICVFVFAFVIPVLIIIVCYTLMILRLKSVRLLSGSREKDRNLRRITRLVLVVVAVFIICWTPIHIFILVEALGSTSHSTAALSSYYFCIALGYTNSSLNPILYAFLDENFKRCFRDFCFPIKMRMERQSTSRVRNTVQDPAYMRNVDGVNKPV

Compound	ED50 [1, 5] [mg/kg]	ED50 [2] [mg/kg]	Ki [3] [nM]	responders at 1 mg/kg ([1]; subcutaneous) [%]	remaining activity at 1 µM [3, 7] [%]	other results
CN(C)CC1CCCCN1C(=O)Cc1ccc(Cl)c(Cl)c1 (centres unmarked) [Example 2, 1-(3,4-dichlorophenyl)acetyl-2-dimethylaminomethyl piperidine hydrochloride]	0.36	0.65	8.21			Ki (μ receptor; guinea pig brain homogenate, Table 2, read-out: Receptor binding μ Ki): 3730 nM
O=C(Cc1ccc2c(c1)CCCC2)N1CCCCC1CN1CCCC1 (centres unmarked) [Example 13, 1-(6-tetralylacetyl)-2-(1-pyrrolidinylmethyl)piperidine hydrochloride]				80		ED50 [1, 6]: 45 mg/kg; Ki (μ receptor; read-out: Opiate receptor binding μ Ki, guinea pig brain homogenate, Table 3): 500 nM; Ki ([3]; guinea pig brain homogenate, tritiated Ethylketocyclazocine, Table 3, read-out: Opiate receptor binding K Ki): 5.72 nM; ED50 [4]: 3.91 mg/kg
O=C(Cc1ccc(Cl)c(Cl)c1)N1CCCCCC1CN1CCCC1 (centres unmarked) [Example 8, 1-(3,4-dichlorophenylacetyl)-2-(1-pyrrolidinylmethyl)-hexahydroazepine hydrochloride]	8.76		6.51			
O=C(Cc1ccc2c(c1)CCC2)N1CCCCC1CN1CCCC1 (centres unmarked) [Example 12, 1-(5-indaneacetyl)-2-(1-pyrrolidinylmethyl)piperidine hydrochloride]				60	62	
CCC(C(=O)N1CCCCC1CN1CCCC1)c1ccccc1 (single isomer, unassigned; isomer b) [Example 16, 1-(2-phenylbutyroil)-2-(1pyrrolidinylmethyl) piperidine hydrochloride. Isomer B]				40		
Cc1ccc(CC(=O)N2CCCCC2CN2CCCC2)cc1C (centres unmarked) [Example 11, 1-(3,4-dimethylphenylacetyl)-2-(1-pyrrolidinylmethyl) piperidine hydrochloride]				60	67	
COc1ccc(CC(=O)N2CCCCC2CN2CCCC2)cc1OC (centres unmarked) [Example 15, 1-(3-4-dimethoxyphenylacetyl)-2-(1-pyrrolidinylmethyl) piperidine hydrochloride]				40	100	
O=C(Cc1ccc(Cl)c(Cl)c1)N1CCCCC1CN1CCCC1 (centres unmarked) [Example 1, 1-(3,4-dichlorophenyl)acetyl-2-(1-pyrrolidinyl)methyl piperidine hydrochloride]	0.11	0.2				Ki (μ receptor; [8]): 1860 nM; Ki ([3]; guinea pig brain homogenate, tritiated Ethylketocyclazocine with DADLE and DAGO 100 nM each, Table 2, read-out: Receptor binding K Ki): 1.83 nM
O=C(Cc1ccc(Cl)c(Cl)c1)N1CCCC[C@H]1CN1CCCC1 [Example 4, (2S)-1-(3,4-dichlorophenylacetyl)-2-(1-pyrrolidinylmethyl)piperidine hydrochloride hydrate]	0.055	0.12	0.77			Ki (μ receptor; [8]): 1560 nM
O=C(Cc1ccc(Cl)c(Cl)c1)N1CCCC[C@@H]1CN1CCCC1 [Example 3, (2R)-1-(3,4-dichlorophenylacetyl)-2-(1-pyrrolidinylmethyl)piperidine hydrochloride hydrate]	17.5	12.4	62.1			Ki (μ receptor; [8]): 7110 nM
O=C(COc1ccc(Cl)cc1)N1CCCCC1CN1CCCC1 (centres unmarked) [Example 17, 1-(4-chlorophenoxyacetyl)-2-(1-pyrrolidinylmethyl) piperidine hydrochloride]			9.54	80		ED50 [1, 6]: 91 mg/kg
O=C(Cc1ccc(Cl)cc1)N1CCCCC1CN1CCCC1 (centres unmarked) [Example 14, 1-(4-chlorophenylacetyl)-2-(1-pyrrolidinylmethyl) piperidine hydrochloride]				40	61	
CN(C)C[C@@H]1CCCCN1C(=O)Cc1ccc(Cl)c(Cl)c1 [Example 5, (2S)-1-(3,4-dichlorophenylacetyl)-2-dimethylamino methylpiperidine sesquihydrate]	1.03	0.44	5.01			Ki (μ receptor; [8]): > 1 nM
O=C(Cc1ccccc1)N1CCCCC1CN1CCCC1 (centres unmarked) [Example 10, 1-phenylacetyl-2-(1-pyrrolidinylmethyl)piperidine hydrochloride]				40	100	

From patent USRE33906E, “Cyclic carboxamide derivatives and their use as analgesics” (Dr.Lo.Zambeletti S.p.A., priority 1985, dated 1992)
